The values that follow come from patent US9884886B2, “Disulfide masked prodrug compositions and methods” (Merck Sharp & Dohme Corp., priority 2012, dated 2018).

The nature of the series: Exposure of DTE- or DTT-based dimers to glutathione, release of dimer phosphodiester. It counts as physicochemical. The procedure:
The half life of prodrug-dimer 5-2 was dependent on the character and excess of the reducing reagent (500:1/Prodrug:GSH), in this instance approximately 4 hours. The kinetics of the release was also dependent on pH and 1M TRIS hydrochloride buffers of pH values varied between 5.0 and 7.8 were used.

As for `C#CCO[C@@H]1CSSC[C@H]1OP(=O)(OC[C@H]1O[C@@H](n2ccc(=O)[nH]c2=O)[C@H](OC)[C@@H]1OC(=O)CCC(C)=O)O[C@H]1[C@@H](OC)[C@H](n2ccc(=O)[nH]c2=O)O[C@@H]1COC(c1ccccc1)(c1ccc(OC)cc1)c1ccc(OC)cc1` (stereo partly drawn) [Compound 5-2, (2R,3R,4R,5R)-2-{[({[(2R,3R,4R,5R)-2-{[bis(4-methoxyphenyl)(phenyl)methoxy]methyl}-5-(2,4-dioxo-3,4-dihydropyrimidin-1(2H)-yl)-4-methoxytetrahydrofuran-3-yl]oxy}{[(4S,5S)-5-(prop-2-yn-1-yloxy)-1,2-dithian-4-yl]oxy}phosphoryl)oxy]methyl}-5-(2,4-dioxo-3,4-dihydropyrimidin-1(2H)-yl)-4-methoxytetrahydrofuran-3-yl 4-oxopentanoate], under “1M TRIS hydrochloride buffer with glutathione (GSH), pH 7.3, 500:1/Prodrug:GSH, pH 7.30, 1M TRIS hydrochloride buffer”, the half-life is around 4 h. For the same compound, the “release at acidic conditions” value (buffers of pH between 5.0 and 7.8) is “considerably slower”.
